We go through eight compounds from PubChem BioAssay (NCI).

The structures appear in SMILES notation. Several values for one entry are separate records, joined by “and”; a condition that tells them apart may be missing. Equal values may be shown once.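 Grown in 96-well plates, cells were treated for 48 hours with each compound at five concentrations. Insufficient inhibition: endpoint recorded as highest concentration tested. GI50 = concentration required for 50% inhibition of growth. TGI: concentration producing complete growth inhibition.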 Where only a bound is given, the exact number is not on record here.

Test systems include SNB-19 CNS; KM12 colon; CAKI-1 renal; SF-295 CNS; SR leukemia; A549 NSCLC; BT-549 breast; DU-145 prostate; HCC-2998 colon; OVCAR-4 ovarian.
What all share (experiment): growth of human tumour cells (NCI), 48 h

As to `Cc1ccc(N=Nc2c(N)nn(-c3ccccc3)c2N)cc1`, the GI50 in the experiment on SNB-19 CNS is 6.23 µM; in the experiment on KM12 colon, 0.626 µM; in the experiment with CAKI-1 renal it was 1.28 µM; in the experiment on SF-295 CNS, 1.83 µM; with SR leukemia, 0.378 µM; with A549 NSCLC, 2.13 µM. Besides, the GI50 is 0.737 µM in the experiment with BT-549 breast, 3.44 µM in the experiment with DU-145 prostate, 0.912 µM in the experiment on HCC-2998 colon and greater than 40.7 µM with OVCAR-4 ovarian. For the same compound, the TGI in the experiment with SNB-19 CNS was greater than 100 µM; in the experiment with KM12 colon it was greater than 100 µM; with CAKI-1 renal, greater than 23.1 µM; in the experiment with SF-295 CNS, greater than 57.1 µM; with SR leukemia it was greater than 100 µM; in the experiment on A549 NSCLC, greater than 100 µM. Further, the TGI in the experiment with BT-549 breast, in the experiment with DU-145 prostate, in the experiment with HCC-2998 colon and with OVCAR-4 ovarian was greater than 100 µM throughout.
As to `COc1ccc2c(c1)sc1nc(-c3ccccc3)c(-c3ccc(O)c(OC)c3)n12`, the GI50 in the experiment on SNB-19 CNS was 32.5 µM; in the experiment with KM12 colon, 4.81 µM; in the experiment on CAKI-1 renal, 8.54 µM; with SF-295 CNS, 8 µM; in the experiment on SR leukemia, 3.34 µM; with A549 NSCLC, 9.91 µM. Besides, the GI50 is 17.5 µM in the experiment on BT-549 breast, 35.4 µM with DU-145 prostate, greater than 100 µM in the experiment on HCC-2998 colon and 39.1 µM with OVCAR-4 ovarian. Further, the TGI in the experiment with SNB-19 CNS, in the experiment on KM12 colon, in the experiment on CAKI-1 renal, in the experiment on SF-295 CNS, in the experiment on SR leukemia and with A549 NSCLC was greater than 100 µM in each case. Moreover, the TGI in the experiment on BT-549 breast, with DU-145 prostate, with HCC-2998 colon and in the experiment with OVCAR-4 ovarian was greater than 100 µM each time.
As for `CCOC(=O)c1ccc(Nc2sc(C(=O)c3cccc([N+](=O)[O-])c3)c(N)c2C#N)cc1`, the GI50 with SNB-19 CNS was 0.338 µM; in the experiment with KM12 colon, 0.0678 µM; in the experiment on CAKI-1 renal, 0.044 µM; in the experiment on SF-295 CNS, 0.0228 µM; in the experiment on SR leukemia it was 0.034 µM; in the experiment on A549 NSCLC, 0.23 µM. Besides, the GI50 in the experiment with BT-549 breast was 0.0568 µM; in the experiment on DU-145 prostate, 0.184 µM; in the experiment with HCC-2998 colon, 2.78 µM; in the experiment on OVCAR-4 ovarian it was 0.612 µM. Also, the TGI with SNB-19 CNS is 18.6 µM; with KM12 colon, 6.43 µM; in the experiment on CAKI-1 renal, 0.253 µM; with SF-295 CNS, 0.102 µM; with SR leukemia, 4.71 µM; in the experiment with BT-549 breast it was 39.4 µM. The figures for the TGI in the experiment with DU-145 prostate, in the experiment on HCC-2998 colon and in the experiment with OVCAR-4 ovarian were 21.1 µM, greater than 100 µM and 57.1 µM, respectively.
For `C[C@H]1[C@H](C)CC[C@]2(C(=O)O)CC[C@]3(C)C(=CC[C@@H]4[C@@]5(C)CC[C@H](OC(=O)/C=C/c6ccc(O)cc6)C(C)(C)[C@@H]5CC[C@]43C)[C@H]12`, the GI50 in the experiment with SNB-19 CNS was 2.44 µM; in the experiment on KM12 colon, 1.09 µM; with CAKI-1 renal it was 3.13 µM; in the experiment on SF-295 CNS, 2.27 µM; in the experiment on SR leukemia, 3.77 µM; with A549 NSCLC it was 2.37 µM. The GI50 with BT-549 breast was 5.11 µM; with DU-145 prostate, 2.32 µM; in the experiment on HCC-2998 colon, 7.37 µM; in the experiment on OVCAR-4 ovarian, 9.42 µM. The TGI in the experiment on SNB-19 CNS is 22.9 µM; with KM12 colon, 9.97 µM; in the experiment on CAKI-1 renal, 16.3 µM; with SF-295 CNS, 7.04 µM; in the experiment on SR leukemia it was 24.2 µM; with A549 NSCLC, 12.7 µM. For the same compound, the TGI was found to be 13.4 µM in the experiment with BT-549 breast, 13 µM in the experiment with DU-145 prostate, 21.9 µM in the experiment with HCC-2998 colon and 38.1 µM in the experiment with OVCAR-4 ovarian.
Regarding `O=C(O)c1ccc(NCc2nc3cc4ccccc4cc3[nH]2)cc1`, the TGI in the experiment on SNB-19 CNS, in the experiment on KM12 colon, with CAKI-1 renal, with SF-295 CNS, with SR leukemia and in the experiment with A549 NSCLC was greater than 100 µM in each case. Also, the TGI with BT-549 breast, in the experiment on DU-145 prostate, with HCC-2998 colon and with OVCAR-4 ovarian was greater than 100 µM throughout.
With `C/C(=N\NC(=O)c1ccccc1O)c1cccc(/C(C)=N/NC(=O)c2ccccc2O)n1`, the TGI in the experiment on SNB-19 CNS is 74.2 µM and > 100 µM; in the experiment on KM12 colon, greater than 100 µM; in the experiment on CAKI-1 renal it was greater than 100 µM; with SF-295 CNS, 59.1 µM and > 36.1 µM; with SR leukemia, greater than 100 µM; with A549 NSCLC, greater than 100 µM. In addition, the TGI was greater than 100 µM with BT-549 breast; > 100 µM and 31.3 µM in the experiment on DU-145 prostate; 11.5 µM and > 58.9 µM in the experiment on HCC-2998 colon; greater than 100 µM in the experiment with OVCAR-4 ovarian. The GI50 in the experiment on KM12 colon is 0.456 µM; in the experiment with SF-295 CNS, 0.33 µM; with A549 NSCLC it was greater than 70.8 µM; in the experiment with BT-549 breast, 0.441 µM; in the experiment with DU-145 prostate, 10.7 µM; with HCC-2998 colon it was 0.489 µM. Moreover, the GI50 in the experiment with OVCAR-4 ovarian was 15.9 µM.
For `O=C1c2ccccc2-c2n[nH]c3cccc1c23`, the TGI in the experiment with SNB-19 CNS is greater than 100 µM; in the experiment on KM12 colon, 72 µM and > 100 µM; in the experiment with CAKI-1 renal it was 18.2 µM and 22.6 µM; with SF-295 CNS, 86.3 µM and > 100 µM; with SR leukemia it was greater than 100 µM; with A549 NSCLC, greater than 100 µM. Also, the TGI was greater than 100 µM in the experiment with BT-549 breast; greater than 100 µM with DU-145 prostate; 54.6 µM and > 100 µM in the experiment on HCC-2998 colon; greater than 100 µM with OVCAR-4 ovarian. For the same compound, the GI50 with KM12 colon is 3.1 µM; in the experiment with CAKI-1 renal, 2.98 µM; with SR leukemia it was 9.01 µM; in the experiment on BT-549 breast, 19.3 µM; in the experiment with DU-145 prostate, 13 µM; in the experiment on HCC-2998 colon, 19.3 µM. Moreover, the GI50 in the experiment with OVCAR-4 ovarian is 20.2 µM.
As for `O=C(NC(=S)NNC(=S)NNc1ccccc1)c1ccccc1`, the GI50 is 13 µM in the experiment on SNB-19 CNS; 7.09 µM in the experiment on KM12 colon; 4.75 µM in the experiment on CAKI-1 renal; 4.19 µM in the experiment on SF-295 CNS; 3.7 µM with SR leukemia; 8.58 µM with A549 NSCLC. For the same compound, the GI50 in the experiment on BT-549 breast was 11.3 µM; with DU-145 prostate, 44.1 µM; with HCC-2998 colon, 8.53 µM; in the experiment with OVCAR-4 ovarian, 11 µM. In addition, the TGI in the experiment on SNB-19 CNS, with KM12 colon, with CAKI-1 renal, in the experiment with SF-295 CNS, in the experiment with SR leukemia and with A549 NSCLC was greater than 100 µM in each case. Moreover, the TGI in the experiment on BT-549 breast, in the experiment on DU-145 prostate, in the experiment on HCC-2998 colon and in the experiment with OVCAR-4 ovarian was greater than 100 µM throughout.
